Measurements published in paper PMC6657216, “Defining the Contribution of CYP1A1 and CYP1A2 to Drug Metabolism Using Humanized CYP1A1/1A2 and Cyp1a1/Cyp1a2 Knockout Mice” (Drug Metabolism and Disposition, 2019).
Where “and” joins values, the source holds several entries; their conditions need not be identical. Equal values may be shown once. Read-outs that look alike come from different tables or passages of the source. Marks after values point to notes of the source that are not given here.

Tests used:
[1] = Caffeine systemic clearance from published mouse studies; type: in vivo
[2] = for CYP1A2 Contribution: 5 mg/kg PO, This study; for AUCinf(obs) (% mean of C57BL/6J ± %S.D.) / CL/F(obs) (% mean of C57BL/6J ± %S.D.) / Cmax (% mean of C57BL/6J ± %S.D.) / V/F(obs) (% mean of C57BL/6J ± %S.D.) / V/F(obs): 5 mg/kg oral; for V/F(obs): mean ± S.D., n = 4
Experimental: (§1) A separate experimental group consisted of mice with conditionally deleted hepatic P450 oxidoreductase ([Henderson et al., 2003]) [hepatic reductase null (HRN) mice]. Whole blood samples from WT and hCYP1A1/1A2 mice were collected at 12, 24, and 40 minutes and 1, 2, 3, 4, 6, and 8 hours after the administration. Whole blood samples from HRN and Cyp1a1/1a2 KO mice were collected at 12, 24, and 40 minutes and 1, 3, 6, 8, 12, and 24 hours postadministration. The collected whole blood samples (10 μl) were mixed with an equal volume of heparin solution in water (15 U/ml), frozen in liquid nitrogen, and stored at −70°C. […] The supernatant was collected, and the centrifugation step was repeated.
(§2) Pharmacokinetic parameters were calculated using Phoenix WinNonlin version 6.4 (Certara, St. Louis, MO).

CYP1A2 = tested on: CYP1A2; design: method as in Culm-Merdek et al., 2005; details: healthy subjects; interaction with fluvoxamine; ref Culm-Merdek et al., 2005; cited from earlier work
in vivo = details: whole blood, po, 5 mg/kg
Experimental: as §1, §2

[3] = cited from earlier work
[4] = HRN (hepatic reductase null), mouse

## Cn1c(=O)c2c(ncn2C)n(C)c1=O [caffeine]
[1]; C57BL/6J mice, 5 mg/kg PO, against Cyp1a KO clearance, clearance from ref Li et al., 2017
  CYP1A2 Contribution: 39%
[1]; C57BL/6J mice, 5 mg/kg PO, against Cyp1a KO clearance, clearance from ref Scheer et al., 2014
  CYP1A2 Contribution: 61%
[1]; C57BL/6N mice, 2 mg/kg i.p., calculated against CYP1A2^−/− clearance, clearance from ref Buters et al., 1996
  CYP1A2 Contribution: 88%
[1]; CD-1 mice, 20 mg/kg i.p., against Cyp1a KO clearance, clearance from ref Kaplan et al., 1990
  CYP1A2 Contribution: 55%
[1]; CD-1 mice, 40 mg/kg i.p., against Cyp1a KO clearance, clearance from ref Kaplan et al., 1990
  CYP1A2 Contribution: 25%
[1]; CD-COBS mice, 1 mg/kg i.v., against Cyp1a KO clearance, clearance from ref Walton et al., 2001
  CYP1A2 Contribution: 61%
[1]; CYP1A2^−/− mice, 2 mg/kg i.p., clearance from ref Buters et al., 1996
  CYP1A2 Contribution: 0%
[1]; Swiss mice, 20 mg/kg PO, against Cyp1a KO clearance, clearance from ref Samojlik et al., 2016
  CYP1A2 Contribution: 8%
[1]; Swiss mice, 20 mg/kg i.p., against Cyp1a KO clearance, clearance from ref Samojlik et al., 2016
  CYP1A2 Contribution: 28%
[2]; C57BL/6J (WT) mice, against Cyp1a KO clearance
  CYP1A2 Contribution: 68%
[2]; C57BL/6J mice
  AUCinf(obs) (% mean of C57BL/6J ± %S.D.): 100 ± 22%
  CL/F(obs) (% mean of C57BL/6J ± %S.D.): 100 ± 19%
  Cmax (% mean of C57BL/6J ± %S.D.): 100 ± 26%
  V/F(obs) (% mean of C57BL/6J ± %S.D.): 100 ± 39%
  V/F(obs): 1.253 ± 0.494 L/kg
[2]; Cyp1a KO mice
  increase of AUC compared with WT mice: ~3.1 fold
  increase of elimination half-life compared with WT: ~2.5 fold
  CYP1A2 Contribution: 0%
  AUCinf(obs) (% mean of C57BL/6J ± %S.D.): 309 ± 36%
  Cmax (% mean of C57BL/6J ± %S.D.): 167 ± 20%
  V/F(obs) (% mean of C57BL/6J ± %S.D.): 79 ± 15%
  V/F(obs): 0.992 ± 0.188 L/kg
[2]; Cyp1a KO mice, 5 mg/kg
  CL/F(obs) (% mean of C57BL/6J ± %S.D.): 32% and 32 ± 4%
[2]; HRN mice
  increase of AUC compared with WT mice: ~10 fold
  increase of elimination half-life compared with WT: ~8.9 fold
  AUCinf(obs) (% mean of C57BL/6J ± %S.D.): 1004 ± 45%
  Cmax (% mean of C57BL/6J ± %S.D.): 157 ± 33%
  V/F(obs) (% mean of C57BL/6J ± %S.D.): 84 ± 7%
  V/F(obs): 1.057 ± 0.082 L/kg
[2]; HRN mice, 5 mg/kg
  CL/F(obs) (% mean of C57BL/6J ± %S.D.): 9.7 ± 0.42%
[2]; hCYP1A1/1A2 mice
  increase of AUC compared with WT mice: ~1.5 fold
  AUCinf(obs) (% mean of C57BL/6J ± %S.D.): 147 ± 32%
  Cmax (% mean of C57BL/6J ± %S.D.): 129 ± 8%
  V/F(obs) (% mean of C57BL/6J ± %S.D.): 89 ± 4%
  V/F(obs): 1.111 ± 0.055 L/kg
[2]; hCYP1A1/1A2 mice, against Cyp1a KO clearance
  CYP1A2 Contribution: 53%
[2]; hCYP1A1/1A2 mice, 5 mg/kg
  CL/F(obs) (% mean of C57BL/6J ± %S.D.): 68% and 68 ± 13%
[2]; hCYP1A1/1A2 mice, not statistically significant
  increase of elimination half-life compared with WT: ~1.4 fold
CYP1A2
  contribution of CYP1A2 to caffeine metabolism: 93%
In vivo; C57BL/6J, mouse
  AUC(0-inf): 5700 ± 1260 ng·h/mL
  CL/F: 15.1 mL/min/kg
  Cmax: 2380 ± 628 ng/mL
  half-life: 0.94 ± 0.25 h
In vivo; Cyp1a KO, mouse
  AUC(0-inf): 17700 ± 2070 ng·h/mL
  CL/F: 4.77 mL/min/kg
  Cmax: 3990 ± 472 ng/mL
  half-life: 2.39 ± 0.2 h
In vivo; [4]
  AUC(0-inf): 57300 ng·h/mL
  CL/F: 1.45 mL/min/kg
  Cmax: 3740 ± 794 ng/mL
  half-life: 8.4 ± 0.8 h
In vivo; hCYP1A1/1A2, mouse
  AUC(0-inf): 8400 ± 1800 ng·h/mL
  CL/F: 10.2 mL/min/kg
  Cmax: 3080 ± 194 ng/mL
  half-life: 1.3 ± 0.33 h
[3]; C57BL/6J mice, 5 mg/kg PO, calculated from the mean pharmacokinetic profile in Fig. 2 of the publication, ref Li et al., 2017
  Clearance: 472^a ml/(h*kg)
[3]; C57BL/6J mice, 5 mg/kg PO, ref Scheer et al., 2014
  Clearance: 726 mL/h/kg
[3]; C57BL/6N mice, 2 mg/kg i.p., ref Buters et al., 1996
  Clearance: 2268 mL/h/kg
[3]; CD-1 mice, 20 mg/kg i.p., ref Kaplan et al., 1990
  Clearance: 640 mL/h/kg
[3]; CD-1 mice, 40 mg/kg i.p., ref Kaplan et al., 1990
  Clearance: 380 mL/h/kg
[3]; CD-COBS mice, 1 mg/kg i.v., ref Walton et al., 2001
  Clearance: 732 mL/h/kg
[3]; Swiss mice, 20 mg/kg PO, calculated by dividing dose by AUCinf, ref Samojlik et al., 2016
  Clearance: 311^b ml/(h*kg)
[3]; Swiss mice, 20 mg/kg i.p., calculated by dividing dose by AUCinf, ref Samojlik et al., 2016
  Clearance: 398^b ml/(h*kg)
